The assay deals with T1, Full-length glucokinase (beta cell isoform) (Homo sapiens, UniProt P35557).
T1 construct: Full-length glucokinase (beta cell isoform) was His-tagged at N-terminus; His tag (N); made in house
T1 sequence (P35557 1-465): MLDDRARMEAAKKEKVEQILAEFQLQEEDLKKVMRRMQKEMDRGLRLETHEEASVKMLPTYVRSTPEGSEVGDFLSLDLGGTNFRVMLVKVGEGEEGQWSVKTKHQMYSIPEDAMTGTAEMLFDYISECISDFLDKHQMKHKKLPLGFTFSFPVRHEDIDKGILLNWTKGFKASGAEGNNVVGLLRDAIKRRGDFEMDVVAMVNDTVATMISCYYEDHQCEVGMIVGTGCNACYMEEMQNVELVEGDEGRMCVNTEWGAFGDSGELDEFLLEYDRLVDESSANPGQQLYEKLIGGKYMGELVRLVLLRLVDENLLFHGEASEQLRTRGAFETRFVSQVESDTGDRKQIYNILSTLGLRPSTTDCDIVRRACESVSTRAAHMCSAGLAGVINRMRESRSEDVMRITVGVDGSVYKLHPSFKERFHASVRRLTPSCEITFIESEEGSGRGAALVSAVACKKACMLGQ
In words: Glucokinase biochemical assay (PK/LDH-coupled, NADH depletion at 340 nm): % activation, EC50, % max activation. Particulars: 5 mM glucose; for activation at 10 µM: read-out: % Activation at 10 uM; for EC50: GK activation, read-out: EC50; for Emax: fitted maximum activation, read-out: % Max Activation. The gist of the method: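 N-terminally His-tagged full-length human beta-cell glucokinase, room temperature, 5 mM glucose, 1 mM ATP, PK/LDH-coupled with 0.7 mM NADH, 1% DMSO final. Initial velocity from the 200–900 s slope of A340 decline. % activation = (Va/Vo−1)×100, measured across compound concentrations.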

The mark [1] stands for this setting: 10 uM compound, % Activation=(Va/Vo−1)×100.

A word on the EC50: it is the concentration giving half of the maximal effect.

Like-named read-outs stand apart in the source and are kept apart here.

For `Cn1ccc(NC(=O)c2cc(OCc3ccccc3)c3c(c2)C(=O)N(C2CC2)C3)n1` [Example 377, 7-(Benzyloxy)-2-cyclopropyl-N-(1-methyl-1H-pyrazol-3-yl)-3-oxoisoindoline-5-carboxamide], the activation at 10 µM (compound at 10 uM, 1 mM ATP, room temperature) was found to be 25.6%.

Take `CCc1nnc(NC(=O)c2cc(Oc3ccc(S(C)(=O)=O)cc3)c3c(c2)OC(C)(C)C3)s1` [Example 27, 4-(4-Methanesulfonyl-phenoxy)-2,2-dimethyl-2,3-dihydro-benzofuran-6-carboxylic acid(5-ethyl-[1,3,4]thiadiazol-2-yl)-amide]: the EC50 came to 1.1 µM and the Emax came out at 112%. For the same molecule, the activation at 10 µM under setting [1] is 112%.

For the molecule `CCc1cc2c(Oc3ccc(C(=O)N(C)C)cc3)cc(C(=O)Nc3ccc(C)cn3)cc2o1` [Example 276, 4-{4-[(Dimethylamino)carbonyl]phenoxy}-2-ethyl-N-(5-methylpyridin-2-yl)-1-benzofuran-6-carboxamide], the activation at 10 µM under setting [1] is 20%.

On to `COCc1nnc(NC(=O)c2cc(Oc3ccc(S(C)(=O)=O)cc3)c3c(c2)OC(C)(C)C3)s1` [Example 30, 4-(4-Methanesulfonyl-phenoxy)-2,2-dimethyl-2,3-dihydro-benzofuran-6-carboxylic acid(5-methoxymethyl-[1,3,4]thiadiazol-2-yl)-amide], for which the EC50 was 4.2 µM and the Emax turned out to be 183%. The activation at 10 µM under setting [1] is 144%.

Turning to `Cc1cc(NC(=O)c2cc(Oc3ccc(S(C)(=O)=O)cc3)c3c(c2)OC(C)(C)C3)no1` [Example 25, 4-(4-Methanesulfonyl-phenoxy)-2,2-dimethyl-2,3-dihydro-benzofuran-6-carboxylic acid(5-methyl-isoxazol-3-yl)-amide], the EC50 worked out at 1.3 µM and the Emax turned out to be 116%. Under setting [1], the activation at 10 µM was found to be 102%.

On to `Cc1cc2c(Oc3ccc(S(C)(=O)=O)cc3)cc(C(=O)Nc3cccc(C(C)O)n3)cc2o1` (stereo not shown) [Example 269, N-(6-(1-Hydroxyethyl)pyridin-2-yl)-2-methyl-4-(4-(methylsulfonyl)phenoxy)-benzofuran-6-carboxamide], for which the EC50 amounted to 7 µM and the Emax is 59%. Besides, under setting [1], the activation at 10 µM came out at 34.8%.

Turning to `Cn1ccc(NC(=O)c2cc(Oc3ccc(S(C)(=O)=O)cc3)c3c(c2)OC(CO)C3)n1` (stereo not shown) [Example 200, 2-Hydroxymethyl-4-(4-methanesulfonyl-phenoxy)-2,3-dihydro-benzofuran-6-carboxylic acid (1-methyl-1H-pyrazol-3-yl)-amide], the EC50 is 2.9 µM and the Emax amounted to 147%. Further, the activation at 10 µM under setting [1] was 113%.

As for `Cc1cc2c(Oc3ccc(C(=O)N(C)C)nc3)cc(C(=O)Nc3cnn(C)n3)cc2o1` [Example 278, N,N-Dimethyl-5-(2-methyl-6-((2-methyl-2H-1,2,3-triazol-4-yl)carbamoyl)-benzofuran-4-yloxy)picolinamide], the EC50 was 0.47 µM and the Emax stood at 123%. Moreover, the activation at 10 µM under setting [1] was found to be 131%.

`Cc1ccc(NC(=O)c2cc(Oc3ccc(S(C)(=O)=O)cc3)c3c(c2)OC(C)(CO)C3)nc1` (stereo not shown) [Example 230, 2-Hydroxymethyl-4-(4-methanesulfonyl-phenoxy)-2-methyl-2,3-dihydro-benzofuran-6-carboxylic acid (5-methyl-pyridin-2-yl)-amide]: the EC50 was found to be 0.33 µM and the Emax amounted to 95%. Also, the activation at 10 µM under setting [1] was 91.8%.

For the molecule `CC(=O)N1CC(Oc2cc(C(=O)Nc3ccn(C)n3)cc3c2CC(C)(C)O3)C1` [Example 196, 4-(1-Acetyl-azetidin-3-yloxy)-2,2-dimethyl-2,3-dihydro-benzofuran-6-carboxylic acid (1-methyl-1H-pyrazol-3-yl)-amide], the EC50 is more than 10 µM. Besides, the activation at 10 µM under setting [1] worked out at 62%.

With `Cc1ccc(NC(=O)c2cc(Oc3ccc(C(=O)N(C)C)cc3)c3occc3c2)nc1` [Example 335, 7-{4-[(Dimethylamino)carbonyl]phenoxy}-N-(5-methylpyridin-2-yl)-1-benzofuran-5-carboxamide], the activation at 10 µM under setting [1] worked out at 26%.

`Cc1cc2c(Oc3ccc(S(C)(=O)=O)cc3)cc(C(=O)Nc3ccn(C)n3)cc2o1` [Example 271, 4-(4-(Methylsulfonyl)phenoxy)-2-methyl-N-(1-methyl-1H-pyrazol-3-yl)benzofuran-6-carboxamide]: the EC50 came to 1.3 µM and the Emax was 184%. Also, the activation at 10 µM under setting [1] was determined as 148%.

For `Cn1ccc(NC(=O)c2cc(OCCCC#N)c3c(c2)OC(C)(C)C3)n1` [Example 93, 4-(3-Cyano-propoxy)-2,2-dimethyl-2,3-dihydro-benzofuran-6-carboxylic acid (1-methyl-1H-pyrazol-3-yl)-amide], the EC50 amounted to 9.7 µM and the Emax was 136%. Moreover, the activation at 10 µM under setting [1] was 95.2%.

As for `Cn1ccc(NC(=O)c2cc(Oc3ccc(C#N)c(F)c3)c3c(c2)OC(C)(C)C3)n1` [Example 183, 4-(4-Cyano-3-fluoro-phenoxy)-2,2-dimethyl-2,3-dihydro-benzofuran-6-carboxylic acid (1-methyl-1H-pyrazol-3-yl)-amide], the EC50 was found to be 1.9 µM and the Emax turned out to be 236%. Besides, the activation at 10 µM under setting [1] was found to be 237%.

With `Cn1ccc(NC(=O)c2cc(Oc3ccc(C#N)nc3)c3c(c2)OC(C)(C)C3)n1` [Example 181, 4-(6-Cyano-pyridin-3-yloxy)-2,2-dimethyl-2,3-dihydro-benzofuran-6-carboxylic acid (1-methyl-1H-pyrazol-3-yl)-amide], the EC50 was found to be 1.1 µM and the Emax was 182%. Moreover, under setting [1], the activation at 10 µM came out at 171%.

As to `Cn1ccc(NC(=O)c2cc(OCc3cc(O)nc(C4CC4)n3)c3c(c2)OC(C)(C)C3)n1` [Example 95, 4-(2-Cyclopropyl-6-hydroxy-pyrimidin-4-ylmethoxy)-2,2-dimethyl-2,3-dihydro-benzofuran-6-carboxylic acid (1-methyl-1H-pyrazol-3-yl)-amide], the EC50 is 0.625 µM and the Emax stood at 145%. Besides, under setting [1], the activation at 10 µM stood at 143%.

As to `Cc1csc2cc(C(=O)Nc3ccn(C)n3)cc(O[C@@H](C)Cc3ccccc3)c12` [Example 354, 3-Methyl-4-[(1S)-1-methyl-2-phenylethoxy]-N-(1-methyl-1H-pyrazol-3-yl)-1-benzothiophene-6-carboxamide], the activation at 10 µM under setting [1] stood at 3.5%.

`Cn1ccc(NC(=O)c2cc3c(c(Oc4ccc(S(C)(=O)=O)cc4)c2F)CC(C)(C)O3)n1` [Example 192, 5-Fluoro-4-(4-methanesulfonyl-phenoxy)-2,2-dimethyl-2,3-dihydro-benzofuran-6-carboxylic acid (1-methyl-1H-pyrazol-3-yl)-amide]: the EC50 was 2.1 µM and the Emax amounted to 285%. For the same molecule, the activation at 10 µM under setting [1] is 249%.

Turning to `Cc1ccc(NC(=O)c2cc(Oc3ccc(C(=O)N(C)C)cc3)c3oc(C)cc3c2)nc1` [Example 339, 7-{4-[(Dimethylamino)carbonyl]phenoxy}-2-methyl-N-(5-methylpyridin-2-yl)-1-benzofuran-5-carboxamide], the activation at 10 µM under setting [1] is -0.7%.

Take `Cc1nccnc1C(C)Oc1cc(C(=O)Nc2ccn(C)n2)cc2c1CC(C)(C)O2` (stereo not shown) [Example 83, 2,2-Dimethyl-4-[1-(3-methyl-pyrazin-2-yl)-ethoxy]-2,3-dihydro-benzofuran-6-carboxylic acid (1-methyl-1H-pyrazol-3-yl)-amide]: the EC50 was 8.2 µM and the Emax stood at 148%. Also, the activation at 10 µM under setting [1] is 78.3%.

As to `CN(C)C(=O)c1ccc(Oc2cc(C(=O)Nc3cnccn3)cc3c2CC(C)(C)O3)cc1` [Example 151, 4-(4-Dimethylcarbamoyl-phenoxy)-2,2-dimethyl-2,3-dihydro-benzofuran-6-carboxylic acid pyrazin-2-ylamide], the EC50 stood at 0.47 µM and the Emax came out at 97%. The activation at 10 µM under setting [1] stood at 98.1%.

As for `Cc1cc2c(Oc3ccc(S(C)(=O)=O)cc3)cc(C(=O)Nc3ccn(C)n3)cc2s1` [Example 360, 4-(4-(Methylsulfonyl)phenoxy)-2-methyl-N-(1-methyl-1H-pyrazol-3-yl)benzo[b]thiophene-6-carboxamide], the EC50 came out at 0.62 µM and the Emax worked out at 142%. The activation at 10 µM under setting [1] is 129%.

In the case of `Cc1noc(COc2cc(C(=O)Nc3ccn(C)n3)cc3c2CC(C)(C)O3)n1` [Example 94, 2,2-Dimethyl-4-(3-methyl-[1,2,4]oxadiazol-5-ylmethoxy)-2,3-dihydro-benzofuran-6-carboxylic acid (1-methyl-1H-pyrazol-3-yl)-amide], the EC50 turned out to be 4.4 µM and the Emax amounted to 140%. In addition, under setting [1], the activation at 10 µM was 116%.

For the molecule `CC1(C)Cc2c(Oc3ccc(S(C)(=O)=O)cc3)cc(C(=O)Nc3ccc(CO)cn3)cc2O1` [Example 22, 4-(4-Methanesulfonyl-phenoxy)-2,2-dimethyl-2,3-dihydro-benzofuran-6-carboxylic acid (5-hydroxymethyl-pyridin-2-yl)-amide], the EC50 turned out to be 0.29 µM and the Emax was found to be 117%. Further, under setting [1], the activation at 10 µM worked out at 118%.

The values above are taken from patent US8119624B2, “Fused phenyl amido heterocyclic compounds” (Pfizer Inc., priority 2006, dated 2012).
